{"source": "patent US7439035B1", "about": "“Method of identifying or characterizing a compound that modulates ribonuclease H activity” (McGill University, priority 2001, dated 2008)", "key": {"[1]": {"biological_target": "T1, HIV-1 RT associated RNase H (Human immunodeficiency virus type 1 group M subtype B, UniProt P04585)", "T1 construct": "final concentration of 2.5 nM of the p51/p66 RT heterodimer in the assay; made in house", "assay": "Gel electrophoretic RNase H assay, inhibition of HIV-1 RT associated RNase H", "type": "biochemical", "details": "1.5 nM p51/p66 RT, 100 nM [32P]-RNA/DNA substrate, 37° C., densitometry of undegraded RNA; read-out: IC50 for BBNH obtained with the gel assay", "source_text": "The gel electrophoretic assay used 5′-[^32P]-RNA of the sequence 5′-GAU CUG AGC CUG GGA GCU-3′ (SEQ ID NO: 7; identical to that of the FRET RNA, but lacking the 3′-fluorescein), prepared by the transfer of ^32P from [γ-^32P]-ATP in a reaction catalyzed by bacteriophage T4 polynucleotide kinase. This 5′[^32P]-RNA oligonucleotide was annealed to complementary unlabeled DNA of the sequence 5′-AGC TCC CAG GCT CAG ATC-3′ (SEQ ID NO: 8) to form the [^32P]-RNA/DNA hybrid duplex substrate. Aliquots of 100 μl of 50 mM Tris/HCl (pH 8.0, 37° C.), containing 60 mM KCl and 2.5 mM MgCl2, 1.5 nM p51/p66 RT and variable amounts of BBNH inhibitor were added to individual microtubes and incubated at 37° C. for 15 minutes. […] The extent of RNase H activity can be determined quantitatively by densitometric analysis of the time-dependent disappearance of the full-length RNA substrate and/or the appearance of the smaller degradation products. In this experiment, the bands corresponding to the undegraded 18 nucleotide 5′-[^32P]-RNA were quantified by densitometry, using the software UN-SCAN-IT (Silk Scientific, Orem, Utah). The IC50 values for BBNH inhibition of HIV-1 RT associated RNase H activity were calculated from plots of the residual undegraded 5′[^32P]-RNA vs. drug concentration."}, "[2]": {"biological_target": "T1, HIV-1 RT associated RNase H", "assay": "FRET RNase H assay, inhibition of HIV-1 RT associated RNase H", "type": "biochemical", "details": "1.5 nM p51/p66 RT, 100 nM 3'-fluorescein-RNA/5'-DABCYL-DNA substrate, 37° C., 15 min preincubation; read-out: IC50 for BBNH obtained with the FRET assay", "experimental": "Microplate assay protocol for the measurement of RNase H activity using the RNA/DNA hybrid duplex substrate. Reaction assay mixtures contained 5 μl of a stock solution of 2.5 μM RNA/DNA hybrid duplex substrate added to 85 μl of assay buffer (50 mM Tris, pH 8.0, 37° C., containing 60 mM KCl and 2.5 mM MgCl2), prepared in the wells of a 96-well fluorescence microtiter plate, and warmed to 37° C. using the temperature control of the SpectraMax Gemini XS microplate spectrofluorometer (Molecular Devices). Reactions were started by the addition of 5 μl of a solution of recombinant HIV-1 reverse transcriptase (usually providing a final concentration of 2.5 nM of the p51/p66 RT heterodimer in the assay, and mixing using the automatic mixing function of the microplate spectrofluorometer. The reverse transcriptase for use in this assay was prepared as described by Fletcher R S et al, Single step purification of HIV-1 recombinant wild type and mutant reverse transcriptase, Protein Expression and Purification 7:27-32, 1996. The increase in fluorescence signal resulting from the loss of FRET due to the enzymatic hydrolysis of the RNA strand was measured over suitable time intervals (ranging from 3 minutes to 60 minutes), at an excitation wavelength of 490 nm and an emission wavelength of 528 nm, using a cut-off filter of 515 nm. […]"}}, "data": [{"smiles": "CC(C)(C)c1ccc(C(=O)NN=Cc2c(O)ccc3ccccc23)cc1", "note": "[BBNH, N-(4-tert-butylbenzoyl)-2-hydroxy-1-naphthaldehyde hydrazone]", "values": [{"measurement": "IC50", "setting": "[1]", "result": "3 ± 1.2", "unit": "µM"}, {"measurement": "IC50", "setting": "[2]", "result": "2.6 ± 0.5", "unit": "µM"}]}]}
